Laboratory results published in patent publication US9283222B2 (priority 2006, dated 2016).

Biological target: Recombinant Human Poly(ADP-Ribose) Polymerase (PARP), PARP-1 (Homo sapiens (Human), UniProt P09874)
Settings: read-out: PARP-1 (Ki); Table 1; text calls the values EC50s

Sequence of Recombinant Human Poly(ADP-Ribose) Polymerase (PARP), PARP-1 (P09874 whole entry): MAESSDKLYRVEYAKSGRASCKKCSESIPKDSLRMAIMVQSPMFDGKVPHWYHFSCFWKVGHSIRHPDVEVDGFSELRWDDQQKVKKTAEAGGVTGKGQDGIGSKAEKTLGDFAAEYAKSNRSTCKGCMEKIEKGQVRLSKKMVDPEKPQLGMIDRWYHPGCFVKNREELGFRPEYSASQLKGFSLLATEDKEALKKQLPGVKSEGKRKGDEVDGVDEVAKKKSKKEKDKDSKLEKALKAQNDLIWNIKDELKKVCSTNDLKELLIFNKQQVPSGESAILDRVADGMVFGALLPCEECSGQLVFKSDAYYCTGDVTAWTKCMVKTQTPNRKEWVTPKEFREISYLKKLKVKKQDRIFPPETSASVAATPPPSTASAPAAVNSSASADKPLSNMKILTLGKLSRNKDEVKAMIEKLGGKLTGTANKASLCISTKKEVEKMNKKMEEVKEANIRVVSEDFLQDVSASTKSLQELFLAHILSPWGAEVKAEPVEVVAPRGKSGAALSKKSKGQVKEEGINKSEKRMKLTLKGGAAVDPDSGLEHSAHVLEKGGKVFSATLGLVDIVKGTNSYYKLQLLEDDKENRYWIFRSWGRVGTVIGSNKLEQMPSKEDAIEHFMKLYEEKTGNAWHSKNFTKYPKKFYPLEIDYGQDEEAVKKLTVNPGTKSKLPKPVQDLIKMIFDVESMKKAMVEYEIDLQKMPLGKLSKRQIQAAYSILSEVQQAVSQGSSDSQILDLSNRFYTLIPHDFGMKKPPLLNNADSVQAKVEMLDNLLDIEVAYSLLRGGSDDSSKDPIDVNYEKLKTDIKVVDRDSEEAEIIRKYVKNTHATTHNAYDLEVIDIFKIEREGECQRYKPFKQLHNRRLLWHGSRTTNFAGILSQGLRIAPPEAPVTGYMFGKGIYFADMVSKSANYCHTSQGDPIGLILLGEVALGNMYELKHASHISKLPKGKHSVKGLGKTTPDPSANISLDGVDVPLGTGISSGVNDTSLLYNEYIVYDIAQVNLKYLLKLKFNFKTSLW

Row | Compound | Ki [µM]
1 | CCOc1ccccc1NC(=O)c1cccc(Cc2n[nH]c(=O)c3c2CCCC3)c1 [Example 354, N-(2-ethoxyphenyl)-3-((4-oxo-3,4,5,6,7,8-hexahydrophthalazin-1-yl)methyl)benzamide] | 0.363
2 | O=C(CCC(=O)c1ccccc1)Nc1cccc(CCc2n[nH]c(=O)c3c2CCCC3)c1 [Example 294, 4-oxo-N-(3-(2-(4-oxo-3,4,5,6,7,8-hexahydrophthalazin-1-yl)ethyl)phenyl)-4-phenylbutanamide] | 0.204
3 | CNC(=O)c1ccc(Cc2n[nH]c(=O)c3c2CCCC3)s1 [Example 110, N-methyl-5-((4-oxo-3,4,5,6,7,8-hexahydrophthalazin-1-yl)methyl)thiophene-2-carboxamide] | 0.372
4 | CN(C)CCC(=O)Nc1cccc(Cc2n[nH]c(=O)c3c2CCCC3)c1 [Example 221] | 1.54
5 | CC(C)c1ccc(C(=O)Nc2cccc(Cc3n[nH]c(=O)c4c3CCCC4)c2)cc1 [Example 186, 4-isopropyl-N-(3-((4-oxo-3,4,5,6,7,8-hexahydrophthalazin-1-yl)methyl)phenyl)benzamide] | 0.16
6 | CC(C)c1ccc(NC(=O)c2cccc(Cc3n[nH]c(=O)c4c3CCCC4)c2)cc1 [Example 334, N-(4-isopropylphenyl)-3-((4-oxo-3,4,5,6,7,8-hexahydrophthalazin-1-yl)methyl)benzamide] | 0.191
7 | Cc1cc(C(=O)Nc2cccc(Cc3n[nH]c(=O)c4c3CCCC4)c2)c(C)[nH]1 [Example 202, 2,5-dimethyl-N-(3-((4-oxo-3,4,5,6,7,8-hexahydrophthalazin-1-yl)methyl)phenyl)-1H-pyrrole-3-carboxamide] | 0.093
8 | COc1cc(OC)c(NC(=O)c2cccc(Cc3n[nH]c(=O)c4c3CCCC4)c2)cc1Cl [Example 359, N-(5-chloro-2,4-dimethoxyphenyl)-3-((4-oxo-3,4,5,6,7,8-hexahydrophthalazin-1-yl)methyl)benzamide] | 0.151
9 | O=C(COc1ccccc1)N1CCNC(Cc2n[nH]c(=O)c3c2CCCC3)C1 (stereo not drawn) [Example 292, 4-((4-(phenoxyacetyl)piperazin-2-yl)methyl)-5,6,7,8-tetrahydrophthalazin-1(2H)-one] | 0.116
10 | O=C(CCN1CCCCC1)Nc1cccc(Cc2n[nH]c(=O)c3c2CCCC3)c1 [Example 98, N-(3-((4-oxo-3,4,5,6,7,8-hexahydrophthalazin-1-yl)methyl)phenyl)-3-piperidin-1-ylpropanamide] | 0.286
11 | O=C(Nc1ccccc1Nc1ccccc1)c1cccc(Cc2n[nH]c(=O)c3c2CCCC3)c1 [Example 364, N-(2-anilinophenyl)-3-((4-oxo-3,4,5,6,7,8-hexahydrophthalazin-1-yl)methyl)benzamide] | 0.316

The next molecules have a lower Ki than those just listed; values first:

Row | Ki [µM] | Compound
12 | 0.045 | O=C(Nc1cccc2c(O)cccc12)c1cccc(Cc2n[nH]c(=O)c3c2CCCC3)c1 [Example 367, N-(5-hydroxy-1-naphthyl)-3-((4-oxo-3,4,5,6,7,8-hexahydrophthalazin-1-yl)methyl)benzamide]
13 | 0.043 | O=C(Cc1cccc(Oc2ccccc2)c1)Nc1cccc(Cc2n[nH]c(=O)c3c2CCCC3)c1 [Example 176, N-(3-((4-oxo-3,4,5,6,7,8-hexahydrophthalazin-1-yl)methyl)phenyl)-2-(3-phenoxyphenyl)acetamide]
14 | 0.043 | O=c1[nH]nc(Cc2cccc(-c3cccc(CNC4CCCC4)c3)c2)c2c1CCCC2 [Example 128, 4-((3′-((cyclopentylamino)methyl)-1,1′-biphenyl-3-yl)methyl)-5,6,7,8-tetrahydrophthalazin-1(2H)-one]
15 | 0.014 | O=C(CCCOc1ccccc1)Nc1cccc(Cc2n[nH]c(=O)c3c2CCCC3)c1 [Example 165, N-(3-((4-oxo-3,4,5,6,7,8-hexahydrophthalazin-1-yl)methyl)phenyl)-4-phenoxybutanamide]
16 | 0.007 | CN(C(=O)c1cc(Cc2n[nH]c(=O)c3c2NCCC3)ccc1F)C1CCN(C(=O)c2cccnc2)CC1 [Example 710, 2-fluoro-N-methyl-5-[(5-oxo-1,2,3,4,5,6-hexahydropyrido[2,3-d]pyridazin-8-yl)methyl]-N-[1-(pyridin-3-ylcarbonyl)piperidin-4-yl]benzamide]
17 | 0.005 | NC(=O)C1CCCN(C(=O)c2cc(Cc3n[nH]c(=O)c4c3NCCC4)ccc2F)C1 (stereo not drawn) [Example 519, 1-{2-fluoro-5-[(5-oxo-1,2,3,4,5,6-hexahydropyrido[2,3-d]pyridazin-8-yl)methyl]benzoyl}piperidine-3-carboxamide]
18 | 0.003 | O=C(c1cc(Cc2n[nH]c(=O)c3c2CCCC3)ccc1F)N1CCN(c2cccc(F)c2)CC1 [Example 527, 4-(4-fluoro-3-{[4-(3-fluorophenyl)piperazin-1-yl]carbonyl}benzyl)-5,6,7,8-tetrahydrophthalazin-1(2H)-one]
19 | 0.0025 | O=C(OCc1ccccc1)N1CCCN(C(=O)c2cc(Cc3n[nH]c(=O)c4c3NCCC4)ccc2F)CC1 [Example 659, benzyl 4-{2-fluoro-5-[(5-oxo-1,2,3,4,5,6-hexahydropyrido[2,3-d]pyridazin-8-yl)methyl]benzoyl}-1,4-diazepane-1-carboxylate]
20 | 0.002 | O=C(CCOc1ccccc1)Nc1cc(Cc2n[nH]c(=O)c3c2NCCC3)ccc1F [Example 478, N-(2-fluoro-5-((5-oxo-1,2,3,4,5,6-hexahydropyrido(2,3-d)pyridazin-8-yl)methyl)phenyl)-3-phenoxypropanamide]
21 | 0.0019 | O=C(COc1ccccc1)N1CCN(C(=O)c2cc(Cc3n[nH]c(=O)c4c3CCCC4)ccc2F)CC1 [Example 590, 4-(4-fluoro-3-{[4-(phenoxyacetyl)piperazin-1-yl]carbonyl}benzyl)-5,6,7,8-tetrahydrophthalazin-1(2H)-one]
22 | 0.0015 | O=C(c1cc(Cc2n[nH]c(=O)c3c2CCCC3)ccc1F)N1CCN(C(=O)c2cccnc2Cl)CC1 [Example 755, 4-[3-({4-[(2-chloropyridin-3-yl)carbonyl]piperazin-1-yl}carbonyl)-4-fluorobenzyl]-5,6,7,8-tetrahydrophthalazin-1(2H)-one]
23 | 0.0013 | O=C(c1cnc(O)c(Cl)c1)N1CCN(C(=O)c2cc(Cc3n[nH]c(=O)c4c3CCCC4)ccc2F)CC1 [Example 723, 4-[3-({4-[(5-chloro-6-hydroxypyridin-3-yl)carbonyl]piperazin-1-yl}carbonyl)-4-fluorobenzyl]-5,6,7,8-tetrahydrophthalazin-1(2H)-one]
24 | 0.0012 | O=C(c1cccnc1)N1CCN(C(=O)c2cc(Cc3n[nH]c(=O)c4c3CCCC4)ccc2F)CC1 [Example 722, 4-(4-fluoro-3-{[4-(pyridin-3-ylcarbonyl)piperazin-1-yl]carbonyl}benzyl)-5,6,7,8-tetrahydrophthalazin-1(2H)-one]
25 | 0.0012 | Cc1nc2cc(C(=O)N3CCN(C(=O)c4cc(Cc5n[nH]c(=O)c6c5NCCC6)ccc4F)CC3)ccc2[nH]1 [Example 654]
26 | 0.001 | O=C(c1cc(Cc2n[nH]c(=O)c3c2NCCC3)ccc1F)N1CCN(C(=O)c2cccnc2Cl)CC1 [Example 658, 8-[3-({4-[(2-chloropyridin-3-yl)carbonyl]piperazin-1-yl}carbonyl)-4-fluorobenzyl]-2,3,4,6-tetrahydropyrido[2,3-d]pyridazin-5(1H)-one]
27 | 0.0008 | O=C(c1ccco1)N1CCN(C(=O)c2cc(Cc3n[nH]c(=O)c4c3NCCC4)ccc2F)CC1 [Example 553, 8-(4-fluoro-3-{[4-(2-furoyl)piperazin-1-yl]carbonyl}benzyl)-2,3,4,6-tetrahydropyrido[2,3-d]pyridazin-5(1H)-one]
